Measurements as given in patent publication US20210221848A1, “POLYMYXIN DERIVATIVES AND THEIR USE IN COMBINATION THERAPY TOGETHER WITH DIFFERENT ANTIBIOTICS” (priority 2014, published 2021).
Like-named read-outs stand apart in the source and are kept apart here.

Assays:
[1] = tested on: A. baumannii
[2] = tested on: K. pneumoniae
[3] = tested on: E. coli
[4] = tested on: E. coli strains with elevated MICs to Polymyxin B; experiment: MIC against strains with elevated MICs to Polymyxin B; format: cell-based, Escherichia coli; conditions: Table 6D; for MIC E. coli 058: strain 058, elevated MIC to Polymyxin B; for MIC E. coli 059: strain 059, elevated MIC to Polymyxin B; for MIC E. coli 060: strain 060, elevated MIC to Polymyxin B; for MIC E. coli 061: strain 061, elevated MIC to Polymyxin B
Procedure: (§1) The inoculum was prepared by making a direct suspension of isolated colonies (selected from an 18-24 hour Mueller-Hinton agar plate) adjusted to the 0.5 McFarland standard. […] The assays were performed in duplicate. […] In cases where the duplicate values varied by less than 2-fold, the lower of the two values is reported. If a variation of greater than 2-fold was observed, the assay was considered non-valid. Several of the compounds were subjected to multiple tests, and where this is the case, the MIC reflects the modal value obtained.
(§2) The Further Synthesis Examples were tested against a range of Gram negative bacteria, and tested for HK-2 cell toxicity. All the worked examples, including the Synthesis and Further Synthesis Examples, were also tested against a range of Gram negative bacteria that are resistant to Polymyxin B (i.e. those strains where Polymyxin B has an elevated MIC value).

[5] = tested on: A. baumanii strains with elevated MICs to Polymyxin B; experiment: as above; format: cell-based, Acinetobacter baumannii; conditions: Table 6D; for MIC A. baumannii 053: strain 053, elevated MIC to Polymyxin B; for MIC A. baumannii 056: strain 056, elevated MIC to Polymyxin B; for MIC A. baumannii 068: strain 068, elevated MIC to Polymyxin B; for MIC A. baumannii 070: strain 070, elevated MIC to Polymyxin B
Procedure: as §1, §2

[6] = tested on: K. pneumoniae strains with elevated MICs to Polymyxin B; experiment: as above; format: cell-based, Klebsiella pneumoniae; conditions: Table 6D; for MIC K. pneumoniae 062: strain 062, elevated MIC to Polymyxin B; for MIC K. pneumoniae 063: strain 063, elevated MIC to Polymyxin B; for MIC K. pneumoniae 064: strain 064, elevated MIC to Polymyxin B; for MIC K. pneumoniae 655: strain 655, elevated MIC to Polymyxin B
Procedure: as §1, §2

[7] = tested on: P. aeruginosa strains with elevated MICs to Polymyxin B; experiment: as above; format: cell-based, Pseudomonas aeruginosa; conditions: Table 6D; for MIC P. aeruginosa 065: strain 065, elevated MIC to Polymyxin B; for MIC P. aeruginosa 066: strain 066, elevated MIC to Polymyxin B; for MIC P. aeruginosa 067: strain 067, elevated MIC to Polymyxin B
Procedure: as §1, §2

[8] = tested on: P. aeruginosa
[9] = absence of a second agent, Table 6B

| Substance | MIC E. coli 058 [4] | MIC E. coli 059 [4] | MIC E. coli 060 [4] | MIC E. coli 061 [4] | MIC A. baumannii 053 [5] | MIC A. baumannii 056 [5] | MIC A. baumannii 068 [5] | MIC A. baumannii 070 [5] | MIC K. pneumoniae 062 [6] | MIC K. pneumoniae 063 [6] | MIC K. pneumoniae 064 [6] | MIC K. pneumoniae 655 [6] | MIC P. aeruginosa 065 [7] | MIC P. aeruginosa 066 [7] | MIC P. aeruginosa 067 [7] | MIC, A. baumannii ATCC BAA-747 ([1]; sole activity, Table 6C) | MIC, A. baumannii NCTC 13424 ([1]; sole activity, Table 6C) | MIC, K. pneumoniae ATCC 4352 ([2]; sole activity, Table 6C) | MIC, E. coli ATCC 25922 ([3]; sole activity, Table 6C) | MIC, P. aeruginosa ATCC 27853 ([8]; sole activity, Table 6C) | other results |
| --- | --- | --- | --- | --- | --- | --- | --- | --- | --- | --- | --- | --- | --- | --- | --- | --- | --- | --- | --- | --- | --- |
| 4-octylpiperidine-3- carbonyl polymyxin B nonapeptide [Example D35] | 1 micrograms/mL | 0.5 micrograms/mL | 2 micrograms/mL | 4 micrograms/mL | 32 micrograms/mL | 8 micrograms/mL | 1 micrograms/mL | 1 micrograms/mL | 1 micrograms/mL | 2 micrograms/mL | 1 micrograms/mL | 4 micrograms/mL | 0.25 micrograms/mL | 1 micrograms/mL | 4 micrograms/mL | – | – | – | – | – | MIC, A. baumannii ATCC BAA-747 [1, 9]: 2 micrograms/mL; MIC, A. baumannii NCTC 13424 [1, 9]: 1 micrograms/mL; MIC, K. pneumoniae ATCC 4352 [2, 9]: 2 micrograms/mL; MIC, K. pneumoniae ATCC BAA-2146 [2, 9]: 2 micrograms/mL; MIC, E. coli ATCC 25922 [3, 9]: 1 micrograms/mL; MIC, E. coli NCTC 13441 [3, 9]: 1 micrograms/mL; MIC, P. aeruginosa ATCC 27853 [8, 9]: 1 micrograms/mL; MIC, P. aeruginosa CCUG 59347 [8, 9]: 1 micrograms/mL |
| trans-5- cyclohexyl- piperidine-3- carbonyl L-Thr-L- Dap-polymyxin E heptapeptide [Example D86] | 0.5 micrograms/mL | 1 micrograms/mL | 1 micrograms/mL | 4 micrograms/mL | 16 micrograms/mL | 50.25 micrograms/mL | 1 micrograms/mL | 2 micrograms/mL | 1 micrograms/mL | 8 micrograms/mL | 1 micrograms/mL | 4 micrograms/mL | 0.5 micrograms/mL | 0.25 micrograms/mL | 32 micrograms/mL | 0.03 micrograms/mL | 0.06 micrograms/mL | 0.03 micrograms/mL | 0.125 micrograms/mL | 0.25 micrograms/mL | MIC, P. aeruginosa CCUG 59347 ([8]; sole activity, Table 6C): 0.5 micrograms/mL |
| 5- isobutoxypiperidine- 3-carbonyl L- Thr-L-Dap- polymyxin B heptapeptide [Example D70] | 4 micrograms/mL | 8 micrograms/mL | 4 micrograms/mL | 16 micrograms/mL | >256 micrograms/mL | 16 micrograms/mL | 8 micrograms/mL | 32 micrograms/mL | 64 micrograms/mL | 64 micrograms/mL | 6 micrograms/mL | 32 micrograms/mL | 4 micrograms/mL | 16 micrograms/mL | >256 micrograms/mL | 0.06 micrograms/mL | 0.125 micrograms/mL | 0.06 micrograms/mL | 0.125 micrograms/mL | 0.25 micrograms/mL | MIC, E. coli NCTC 13441 ([3]; sole activity, Table 6C): 0.125 micrograms/mL; MIC, P. aeruginosa CCUG 59347 ([8]; sole activity, Table 6C): 0.5 micrograms/mL |
| (trans-5- octylpiperidine)-3- carbonyl polymyxin B nonapeptide [Example D23] | 0.5 micrograms/mL | 0.25 micrograms/mL | 1 micrograms/mL | 1 micrograms/mL | 2 micrograms/mL | 0.5 micrograms/mL | 1 micrograms/mL | 1 micrograms/mL | 4 micrograms/mL | 4 micrograms/mL | 1 micrograms/mL | 4 micrograms/mL | 0.5 micrograms/mL | 1 micrograms/mL | 8 micrograms/mL | – | – | – | – | – | MIC, A. baumannii ATCC BAA-747 [1, 9]: 0.25 micrograms/mL; MIC, A. baumannii NCTC 13424 [1, 9]: 0.25 micrograms/mL; MIC, K. pneumoniae ATCC BAA-2146 [2, 9]: 1 micrograms/mL; MIC, E. coli NCTC 13441 [3, 9]: 1 micrograms/mL; MIC, P. aeruginosa ATCC 27853 [8, 9]: 0.5 micrograms/mL; MIC, P. aeruginosa CCUG 59347 [8, 9]: 0.5 micrograms/mL |
| cis-5- (benzylcarbamoyl) piperidine-3- carbonyl L-Thr-L- Dap-polymyxin B heptapeptide [Example D75] | 4 micrograms/mL | 8 micrograms/mL | 4 micrograms/mL | 8 micrograms/mL | 64 micrograms/mL | 8 micrograms/mL | 16 micrograms/mL | 32 micrograms/mL | 128 micrograms/mL | 64 micrograms/mL | 8 micrograms/mL | 64 micrograms/mL | 4 micrograms/mL | 8 micrograms/mL | – | 0.06 micrograms/mL | 0.125 micrograms/mL | 0.06 micrograms/mL | 0.06 micrograms/mL | 0.5 micrograms/mL | MIC, K. pneumoniae ATCC BAA-2146 ([2]; sole activity, Table 6C): 0.125 micrograms/mL; MIC, E. coli NCTC 13441 ([3]; sole activity, Table 6C): 0.125 micrograms/mL; MIC, P. aeruginosa CCUG 59347 ([8]; sole activity, Table 6C): 0.5 micrograms/mL |
| cis-5-cyclohexyl- piperidine-3- carbonyl L-Thr-L- Dap-polymyxin B heptapeptide [Example D85] | 2 micrograms/mL | 16 micrograms/mL | 4 micrograms/mL | 16 micrograms/mL | 64 micrograms/mL | 4 micrograms/mL | 8 micrograms/mL | 8 micrograms/mL | – | 64 micrograms/mL | 16 micrograms/mL | 32 micrograms/mL | 4 micrograms/mL | 16 micrograms/mL | >128 micrograms/mL | 0.015 micrograms/mL | 0.06 micrograms/mL | 0.06 micrograms/mL | 0.06 micrograms/mL | 0.125 micrograms/mL | MIC, E. coli NCTC 13441 ([3]; sole activity, Table 6C): 0.125 micrograms/mL; MIC, P. aeruginosa CCUG 59347 ([8]; sole activity, Table 6C): 0.25 micrograms/mL |
| trans-5-phenyl- piperidine-3- carbonyl L-Thr-L- Dap-polymyxin B heptapeptide [Example D84] | 4 micrograms/mL | 8 micrograms/mL | 4 micrograms/mL | 8 micrograms/mL | >64 micrograms/mL | 32 micrograms/mL | 8 micrograms/mL | 16 micrograms/mL | >64 micrograms/mL | 32 micrograms/mL | 8 micrograms/mL | 16 micrograms/mL | 8 micrograms/mL | 2 micrograms/mL | >64 micrograms/mL | 0.06 micrograms/mL | 0.25 micrograms/mL | 0.125 micrograms/mL | 0.25 micrograms/mL | 0.5 micrograms/mL | MIC, E. coli NCTC 13441 ([3]; sole activity, Table 6C): 0.06 micrograms/mL; MIC, P. aeruginosa CCUG 59347 ([8]; sole activity, Table 6C): 0.5 micrograms/mL |
